In ChEMBL document CHEMBL1201862, “PubChem BioAssay data set” (2004):
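How tested: cells in 96-well plates exposed to compound for 48 hours at five concentrations. GI50 marks 50% less growth.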 The source made the active and inactive calls. No stated cut-off is given here; in the data, active = GI50 up to about 1.1 µM and inactive = higher.

Assays:
Assay in all cases: NCI-60 cell line screen, 48 h
COLO 205 = tested on: COLO 205
DLD-1 = tested on: DLD-1
DMS-273 = tested on: DMS-273
HCC 2998 = tested on: HCC 2998
HCT-116 = tested on: HCT-116
HOP-62 = tested on: HOP-62
M14 = tested on: M14
MOLT-4 = tested on: MOLT-4
NCI-H23 = tested on: NCI-H23
NCI-H460 = tested on: NCI-H460
OVCAR-4 = tested on: OVCAR-4
OVCAR-8 = tested on: OVCAR-8
SK-MEL-28 = tested on: SK-MEL-28
SK-MEL-2 = tested on: SK-MEL-2
SNB-75 = tested on: SNB-75
U-251 = tested on: U-251
LOX IMVI = tested on: LOX IMVI

Measured: GI50

Cc1ccccc1N(CCC#N)C1=NN(C(=O)CC(=O)Nc2ccc(Cl)cc2)C(c2ccccc2)C1 (stereo not drawn)
inactive: COLO 205 > 100 µM | DLD-1 > 100 µM | DMS-273 > 100 µM | HCC 2998 > 100 µM | HCT-116 > 100 µM | HOP-62 > 100 µM | M14 > 100 µM | MOLT-4 > 100 µM | NCI-H23 > 100 µM | NCI-H460 > 100 µM | OVCAR-4 > 100 µM | OVCAR-8 > 100 µM | SK-MEL-28 > 100 µM | SK-MEL-2 > 100 µM | SNB-75 > 100 µM | U-251 > 100 µM

Cn1cnc([N+](=O)[O-])c1Sc1nc2cccnc2s1
inactive: COLO 205 10.3 µM | DLD-1 12.8 µM | DMS-273 16.7 µM | HCC 2998 16.7 µM | HCT-116 16 µM | HOP-62 > 100 µM | LOX IMVI 25.1 µM | M14 13.7 µM | MOLT-4 10.4 µM | NCI-H23 > 10 µM | NCI-H460 34.1 µM | OVCAR-4 12.1 µM | OVCAR-8 16.1 µM | SK-MEL-28 16.5 µM | SNB-75 25.2 µM | U-251 24 µM

Cc1c(C(=O)Nc2ccc(Cl)cc2)nc(N)nc1-c1cccc(Cl)c1
inactive: COLO 205 77.3 µM | DLD-1 > 100 µM | DMS-273 > 100 µM | HCC 2998 61.9 µM | HCT-116 57.3 µM | HOP-62 > 100 µM | LOX IMVI > 10 µM | M14 55.7 µM | MOLT-4 > 100 µM | NCI-H23 > 100 µM | NCI-H460 66.2 µM | OVCAR-4 > 100 µM | OVCAR-8 > 100 µM | SK-MEL-28 > 100 µM | U-251 > 100 µM

COc1ccc2c(c1)[n+]([O-])c(-c1ccc([N+](=O)[O-])cc1)c(N)[n+]2[O-]
inactive: COLO 205 47.4 µM | DLD-1 63.1 µM | DMS-273 > 100 µM | HCT-116 26.6 µM | HOP-62 > 100 µM | M14 > 100 µM | MOLT-4 22.3 µM | NCI-H23 88.5 µM | NCI-H460 49.5 µM | OVCAR-4 > 100 µM | OVCAR-8 > 100 µM | SK-MEL-28 67 µM | SK-MEL-2 80.4 µM | SNB-75 > 100 µM | U-251 68.1 µM

Cc1ccc(S(=O)(=O)NC2CCCCO2)cc1 (stereo not drawn)
inactive: COLO 205 > 100 µM | DLD-1 > 100 µM | DMS-273 > 100 µM | HCC 2998 > 100 µM | HCT-116 > 100 µM | HOP-62 > 100 µM | LOX IMVI > 100 µM | M14 > 100 µM | MOLT-4 > 100 µM | NCI-H23 > 100 µM | NCI-H460 > 100 µM | OVCAR-4 > 100 µM | OVCAR-8 > 100 µM | SK-MEL-28 > 100 µM | SNB-75 > 100 µM | U-251 > 100 µM

Nc1ccccc1S(=O)(=O)N(CC(=O)O)c1ccccc1
inactive: COLO 205 > 100 µM | DLD-1 > 100 µM | DMS-273 > 100 µM | LOX IMVI > 100 µM | M14 > 100 µM | MOLT-4 > 100 µM | NCI-H23 > 100 µM | NCI-H460 > 100 µM | OVCAR-4 > 100 µM | OVCAR-8 > 100 µM | SK-MEL-28 > 100 µM | SK-MEL-2 > 100 µM | SNB-75 > 100 µM | U-251 > 100 µM

Cc1ccc(C)c(NC(=O)c2cccc([N+](=O)[O-])c2O)c1
inactive: COLO 205 17.3 µM | DLD-1 27.8 µM | DMS-273 24.1 µM | HCC 2998 28.3 µM | HCT-116 23.1 µM | HOP-62 15.8 µM | LOX IMVI 16.7 µM | M14 55.6 µM | MOLT-4 20.3 µM | NCI-H23 16.3 µM | NCI-H460 20.9 µM | OVCAR-4 13.2 µM | OVCAR-8 32.1 µM | SK-MEL-28 27.1 µM | SNB-75 20.4 µM | U-251 23.9 µM
